Reference: patent US4183910A, “Method for testing to predict and/or diagnose allergy to penicillins, and compounds and compositions for use in such tests” (priority 1978, dated 1980)

Legend:
Assay type in all cases: in vivo, human
[1] = tested on: patients known to give positive skin test to penicillin derivatives; test: Intradermal skin test with BPO-amines and other penicillin allergy skin test materials (Table II); conditions: for Intensity of reactions in patients: patient gamma: patient eight; for Intensity of reactions in patients: patient alpha / Skin test reaction of patient four, in words: patient four; for Intensity of reactions in patients: patient iota: patient nine; for Intensity of reactions in patients: patient zeta: patient one; for Intensity of reactions in patients: patient epsilon: patient seven; for Intensity of reactions in patients: delta: patient six; for Intensity of reactions in patients: beta: patient three; for Intensity of reactions in patients: theta: patient two; for Skin test reaction of patient four, in words: text summary of Table II
Excerpt: Benzylpenicillin (PG) was 1.0×10^-2 M in 0.11M saline.
Sodium benzylpenicilloate plus sodium benzylpenilloate (P/P) was 1.0×10^-2 M of each dissolved in phosphate buffered saline at pH 7.5.
Benzylpenicilloyl-amine (BPO-amine) was 1.0×10^-2 M concentration phosphate buffered saline at pH 7.5.
Benzylpenicilloyl-n-propyl amine and benzylpenicilloyl-n-ethyl amine (as α-diastereoisomers) were each dissolved to 1.0×10^-2 M concentration in phosphate buffered saline at pH 7.5.
They were healthy men and women ranging in age from 23 to 56 years. Ten people negative to the skin test materials served as controls.
Using 1.0 ml tuberculin syringes with #26 needles and intradermal bevels, 0.01 ml volumes of the test materials were injected intradermally into the anterior-lateral aspects of the arms. Skin tests were read in 15 minutes. A negative reaction is the poorly outlined bleb of fluid --1-3 mm in diameter without surrounding erythema. Positive tests were sharply outlined wheals of 4-20 mm diameter with surrounding erythema. The positive tests were graded as 1+,2+,3+ and 4+ on the basis of wheal diameter. 1+=4-6 mm; 2+=7-9 mm; 3+=10-12 mm; and 4+=more than 13 mm with pseudopods. […] Skin tests were done in duplicate.

[2] = tested on: patients allergic to penicillin; test: Prick skin test with B8 L8 solution; conditions: Patient No. 1; B8 L8 1×10^-6 molar in tris-buffered saline pH 8.2
Description: (§1) The B8 L8 stock solution was diluted to 1×10^-6 molar in tris-buffered saline with a pH of 8.2, also containing ethylenediaminetetraceticacid (2×10^-4 molar) for stability. The composition was then used in skin testing. The tests were conducted by both the prick test and intradermal test methods, and the results were as follows:
Patient No. 1--prick test--B8 L8 =2+.

[3] = tested on: patients allergic to penicillin; test: Intradermal skin test with B8 L8 solution; conditions: Patient No. 2; B8 L8 1×10^-6 molar in tris-buffered saline pH 8.2
Description: as §1
Patient No. 2--intradermal test--the B8 L8 gave a 10 mm wheal and rated from 2+ to 3+ in intensity.

[4] = intradermal 0.01 ml, read in 15 minutes, BPL 1 × 10^-6 M, other materials 1 × 10^-2 M

Molecule | Intensity of reactions in patients: patient gamma [1, 4] | Intensity of reactions in patients: patient eta ([1]; patient five, intradermal 0.01 ml, read in 15 minutes, BPL 1 × 10^-6 M, other materials 1 × 10^-2 M) | Intensity of reactions in patients: patient alpha [1, 4] | Intensity of reactions in patients: patient iota [1, 4] | Intensity of reactions in patients: patient zeta [1, 4] | Intensity of reactions in patients: patient epsilon [1, 4] | Intensity of reactions in patients: delta [1, 4] | Intensity of reactions in patients: beta [1, 4] | Intensity of reactions in patients: theta [1, 4] | Skin test reaction of patient four, in words [1] | Prick test reaction intensity [2] | Size of the wheal (diameter), prick test [2] | Wheal, intradermal test [3]
CC1(C)S[C@@H]2[C@H](NC(=O)Cc3ccccc3)C(=O)N2[C@H]1C(=O)O [PG, Benzylpenicillin] | 0 (A negative reaction is the poorly outlined bleb of fluid --1-3 mm in diameter without surrounding erythema) | 0 (A negative reaction is the poorly outlined bleb of fluid --1-3 mm in diameter without surrounding erythema) | 0 (A negative reaction is the poorly outlined bleb of fluid --1-3 mm in diameter without surrounding erythema) | trace | 2+ (2+=7-9 mm) | trace | 0 (A negative reaction is the poorly outlined bleb of fluid --1-3 mm in diameter without surrounding erythema) | 1+ (1+=4-6 mm) | 2+ (2+=7-9 mm) | – | – | – | –
Benzylpenicilloyl-amine [BPO-amine] | 1+ (1+=4-6 mm) | – | 1+ (1+=4-6 mm) | 2+ (2+=7-9 mm) | – | trace | 0 (A negative reaction is the poorly outlined bleb of fluid --1-3 mm in diameter without surrounding erythema) | – | – | – | – | – | –
CCCNC(=O)[C@@H](NC(=O)Cc1ccccc1)[C@@H]1N[C@@H](C(=O)O)C(C)(C)S1 [BPO-propyl amine, Benzylpenicilloyl-n-propyl amine] | – | – | – | 1+ (1+=4-6 mm) | 1 - 2° | trace | 0 (A negative reaction is the poorly outlined bleb of fluid --1-3 mm in diameter without surrounding erythema) | 2+ (2+=7-9 mm) | – | positive reaction | – | – | –
CCNC(=O)C(NC(=O)Cc1ccccc1)C1NC(C(=O)O)C(C)(C)S1 (centres unmarked) [BPO-ethyl amine, benzylpenicilloyl-n-ethyl amine] | – | – | 2+ (2+=7-9 mm) | 0 (A negative reaction is the poorly outlined bleb of fluid --1-3 mm in diameter without surrounding erythema) | – | trace | 0 (A negative reaction is the poorly outlined bleb of fluid --1-3 mm in diameter without surrounding erythema) | – | 3+ (3+=10-12 mm) | positive reaction | – | – | –
Benzylpenicilloyl8 -Poly-L-Lysine8 [B8 L8] | – | – | – | – | – | – | – | – | – | – | 2+ (2+=7-9 mm) | 4-5 mm | 10 mm
